Measured values from US10098894B2, “Transdermal cream” (TherapeuticsMD, Inc., priority 2014, dated 2018).
Converted amounts (≈) assume the structure as drawn. Where two headings read alike, the source gives them in different places.

Legend:
[1] = test system: endometrium and vagina in ovariectomized rats; assay: Estradiol-induced endometrium proliferation in ovariectomized rats (uterine weight, histology, histomorphometry); format: in vivo, rat; settings: for Uterine weight compared to estradiol-only treatment group: Days 4-8, with estradiol
Experimental: Thirty-two 8-week-old, female, Crl:CD® rats underwent ovariectomy 2 weeks prior to the start of the study. Rats were randomly assigned to 4 groups of 8 rats each. Three of the groups received 3 μg/kg/day estradiol, subcutaneously (SC), for 8 days as well as a placebo cream, 10 mg/kg/day progesterone, SC, or 3.125 mg/day progesterone transdermally beginning on Day 4. The fourth group received saline, SC for 8 days and placebo cream beginning on Day 4. Two hours after the final dose on Day 8, the rats were humanely euthanized, uterine weights were measured, and the vagina and distal portions of the uterine horns were fixed and processed for histology and computer-aided morphometry. Study parameters are outlined in Table 22.

[2] = Progesterone solubility study in different solvent systems; format: physicochemical; settings: thermodynamic from solid, room temperature, visual
Experimental: Solubility of progesterone was determined on a visual basis by adding progesterone incrementally to a certain quantity of solvent at room temperature until a supersaturated solution was formed.

[3] = Exposure, tissue distribution and metabolite profile (progesterone, ALLO, ALLO-sulfate in plasma, salivary gland, uterus) in ovariectomized rats; format: in vivo; settings: for Kp at 2 h: female, Crl:CD, uterus/plasma, read-out: Ratio of progesterone levels in the uterus to plasma; for Mean progesterone level in plasma / Mean progesterone level in salivary gland / Mean progesterone level in uterus: 2 hours after final dose Day 8
Experimental: Thirty-two 8-week-old, female, Crl:CD® rats underwent ovariectomy 2 weeks prior to study start. […] Plasma and tissue homogenates were analyzed for progesterone, ALLO, and ALLO-sulfate using LC-MS/MS.

[4] = Progesterone solubility study in different solvent systems; format: physicochemical; settings: oil or lipid, thermodynamic from solid; in CAPRYOL 90; solubility determined by HPLC

C[C@]12CC[C@@H]3c4ccc(O)cc4CC[C@H]3[C@@H]1CC[C@@H]2O [estradiol, (17β)-estra-1,3,5(10)-triene-3,17-diol]
Effect of unopposed estradiol treatment on the uterus (organ weight, histology) ([1]; 3 μg/kg/day SC, 8 days): hypertrophy

CC(=O)[C@H]1CC[C@H]2[C@@H]3CCC4=CC(=O)CC[C@]4(C)[C@H]3CC[C@]12C [progesterone, pregn-4-ene-3,20-dione]
solubility ([2]; aqueous with cosolvent or surfactant or cyclodextrin, in 5% SLS): 6.6 mg/mL (≈ 21 mM)
solubility ([2]; oil or lipid, in CAPRYOL PGMC): 82 mg/mL (≈ 261 mM)
solubility ([2]; oil or lipid, in GLYCEROX 767): 22.2 mg/mL (≈ 70.6 mM)
solubility ([2]; oil or lipid, in LABRAFAC PG): 41 mg/mL (≈ 130 mM)
solubility ([2]; oil or lipid, in LAUROGLYCOL 90): 90.2 mg/mL (≈ 287 mM)
solubility ([2]; oil or lipid, in LAUROGLYCOL FCC): 60 mg/mL (≈ 191 mM)
solubility ([2]; oil or lipid, in MIGLYOL 812 + D-L α Tocopherol Care (85:15)): 38.2 mg/mL
solubility ([2]; oil or lipid, in MIGLYOL 812 + D-L α Tocopherol Care (95:5)): 20.1 mg/mL
solubility ([2]; oil or lipid, in MIGLYOL 812 + LABRAFAC PG (50:50)): 25.7 mg/mL
solubility ([2]; oil or lipid, in MIGLYOL 812 + LAUROGLYCOL 90 (25:75)): 47 mg/mL
solubility ([2]; oil or lipid, in MIGLYOL 812 + LAUROGLYCOL 90 (50:50)): 58.9 mg/mL
solubility ([2]; oil or lipid, in MIGLYOL 812 + TRANSCUTOL (92.5:7.5)): 40.2 mg/mL
solubility ([2]; oil or lipid, in MIGLYOL 812 + TRANSCUTOL (95:5)): 40.5 mg/mL
solubility ([2]; oil or lipid, in MIGLYOL 812 + Vitamin E TPGS (91:9)): 45.2 mg/mL
solubility ([2]; oil or lipid, in MIGLYOL 812): 25 mg/mL (≈ 79.5 mM)
solubility ([2]; oil or lipid, in MIGLYOL 829): 41.3 mg/mL (≈ 131 mM)
solubility ([2]; oil or lipid, in MIGLYOL 840): 41.7 mg/mL (≈ 133 mM)
solubility ([2]; oil or lipid, in Oleic Acid): 62.2 mg/mL (≈ 198 mM)
solubility ([2]; oil or lipid, in Oleyl Alcohol): 41.2 mg/mL (≈ 131 mM)
solubility ([2]; organic solvent or mixture, in Absolute Alcohol): 57 mg/mL (≈ 181 mM)
solubility ([2]; organic solvent or mixture, in Dimethyl Isosorbide): 92 mg/mL (≈ 293 mM)
solubility ([2]; organic solvent or mixture, in Propylene Glycol): 10.5 mg/mL (≈ 33.4 mM)
solubility ([2]; organic solvent or mixture, in TRANSCUTOL): 60.3 mg/mL (≈ 192 mM)
solubility ([2]; organic solvent or mixture, in d-Limonene + TRANSCUTOL (25:75)): 95.6 mg/mL
solubility ([2]; organic solvent or mixture, in d-Limonene + TRANSCUTOL (40:60)): 102 mg/mL
solubility ([2]; organic solvent or mixture, in d-Limonene + TRANSCUTOL (50:50)): 100 mg/mL
solubility ([2]; organic solvent or mixture, in d-Limonene): 204 mg/mL (≈ 649 mM)
Endometrial gland density, transdermal as compared to SC progesterone [1]: significant increase
Uterine weight compared to estradiol-only treatment group ([1]; progesterone 3.125 mg/day transdermally (formulation of Table 16)): pronounced reduction
Uterine weight compared to estradiol-only treatment group ([1]; progesterone 10 mg/kg/day SC): pronounced reduction
Endometrial gland density compared to unopposed estradiol ([1]; progesterone SC): significant increase
Luminal epithelial cell thickness compared to unopposed estradiol ([1]; progesterone SC): significant reduction
Estrogen-specific cellular aspects in uterus and vagina (histology) ([1]; progesterone SC with estradiol): not detected
Endometrial gland density compared to unopposed estradiol ([1]; progesterone transdermally): significant increase
Luminal epithelial cell thickness compared to unopposed estradiol ([1]; progesterone transdermally): significant reduction
Estrogen-specific cellular aspects in uterus and vagina (histology) ([1]; progesterone transdermally with estradiol): not detected
Kp at 2 h ([3]; 10 mg/kg/day, rat, SC route): 7.3
Kp at 2 h ([3]; topical, 3.13 mg/rat/day, transdermal route): 12
Mean progesterone level in plasma ([3]; rat, SC administration): 5.4 ng/mL/mg dose
Mean progesterone level in salivary gland ([3]; rat, SC administration): 5.9 ng/mL/mg dose
Mean progesterone level in uterus ([3]; rat, SC administration): 39 ng/mL/mg dose
Levels of ALLO in the plasma, comparison of both routes of administration ([3]; rat, SC vs topical): similar
Sum of plasma levels of ALLO and ALLO-sulfate relative to plasma level of progesterone ([3]; rat, after topical dosing): equivalent
Mean tissue levels of ALLO and ALLO-sulfate, SC administration compared to topical administration ([3]; rat, all instances): higher
Mean progesterone level in plasma ([3]; rat, topical administration (Table 16 formulation)): 2.0 ng/mL/mg dose
Mean progesterone level in salivary gland ([3]; rat, topical administration): 10 ng/mL/mg dose
Mean progesterone level in uterus ([3]; rat, topical administration): 24 ng/mL/mg dose
solubility [4]: 112 mg/mL (≈ 355 mM)
